Assay results from patent US10653698B2, “Methods of improving myocardial performance in Fontan patients using udenafil compositions” (priority 2014, dated 2020).

Legend:
[1] = test system: adolescents with single ventricle physiology after Fontan palliation; assay: Exercise testing (peak VO2 at maximum effort, VO2 at anaerobic threshold); type: in vivo, human; conditions: for Peak VO2 at Anaerobic Threshold, Baseline measurement / Peak VO2 at Maximum Effort, Baseline measurement: day 1; for Peak VO2 at Anaerobic Threshold, Follow-up measurement / Peak VO2 at Maximum Effort, Follow-up measurement: post-medication, day 5
Text: Exercise testing can include assessment of VO2 values during maximal effort or at anaerobic threshold. VO2 max, or maximal oxygen consumption, refers to the maximum amount of oxygen that an individual can utilize during intense exercise. This measurement is generally considered a reliable indicator of cardiovascular fitness and aerobic endurance. Theoretically, the more oxygen a person can use during high level exercise, the more energy that person can produce. This test is the gold standard for cardiorespiratory fitness because muscles need oxygen for prolonged (aerobic) exercise; blood carries oxygen to the muscles and the heart must pump adequate amounts of blood to meet the demands of aerobic exercise. VO2 is often measured by putting a mask on a subject, and measuring the volume and gas concentrations of inhaled and expired air. This measurement is often used in both clinical settings and research and is considered the most accurate. Testing commonly involves either exercising on a treadmill or riding a bike at increasing intensity until exhaustion, and is designed to provide readings at a maximal effort of the subject and/or at the subject's anaerobic threshold. The purpose of this example was to evaluate the efficacy of the treatment protocol described in Example 1 using various exercise testing parameters. The primary outcome of this arm of the study was maximal VO2 as determined by exercise testing. Table 14 summarizes results for the key outcome from the exercise testing—peak VO2 (limited to the subjects who achieved maximum effort) by treatment group. Out of the 36 subjects enrolled in the trial, 33 reached max effort in the exercise testing at each of the time points, and 31 subjects at both time points. The first two lines present data for baseline and follow-up measurements, while the third line presents differences between the two measurements (change scores, the outcome for this aim). […] An additional outcome, VO2 at anaerobic threshold, was also measured. Similar analyses were performed for this outcome. Overall results are similar to those for maximal VO2.

[2] = Pharmacokinetic testing, non-compartmental analysis of plasma concentrations; type: in vivo, human
Protocol: NONMEM version 7.2, R, PDxPOP® 5, Xpose, and Phoenix WinNonlin was used for the pharmacokinetic analysis.
Pharmacokinetic analysis was performed on Fontan patients receiving udenafil. […] Plasma concentrations were determined at various time points and non-compartmental analysis was performed in patients and stratified by dosing regimens.

clinical = conditions: human, in vivo
Protocol: The population PK analysis was performed using a non-linear mixed effects modeling approach. This approach estimates the typical value of parameters and their variances. It was assumed subjects were at steady state (SS): at a time (t) after dose (D) given at time tD after repeated administration of dose D given at interval τ (t≥tD) as PK samples/udenafil concentrations were taken on study day 6.
As only the drug administration at Day 6 was supplied, it is expected that the subjects have taken the drug at regular intervals at home; due to this a steady state flag will be tested to account for the doses which are not available. As stated, it is assumed steady state has been reached by Day 6, as previous studies of udenafil have stated that during multiple dosing, steady state is reached in 5 days, with apparently little additional accumulation occurring after dosing for 7 days. If there were missed doses during the study period prior to the PK sampling, this can affect the ability to determine whether steady state could be assumed or not for the PK profile. If two or more additional drug administration dates and times were available prior to the visit where the PK samples were taken, then a much better dosing profile could be used for analysis.
One- and two-compartment models were explored (based on literature and available data). The equation for the Input model for the drug described oral absorption. For the one-compartment model, the following equation may apply to the model:
The robustness of the final model was assessed in PDxPOP® 5 by bootstrap re-sampling (n=1000). Values obtained with the bootstrap (based on all runs with successful minimization) were compared to the parameter estimates from the final model. To evaluate the accuracy of the model predictions, normalized prediction distribution errors (NPDE) was performed.
One- and two-compartment models with oral absorption input were evaluated using initial estimates obtained from the literature as described above, and were explored to determine the potential structure of the model. The models were evaluated during the model building process by using objective function value, level of statistical significance, goodness of fit plots, and standard error.
The only covariate available for analysis was current body weight. Weight was tested as a fixed effect on typical values for clearance and volume of distribution (e.g., weight has a “fixed effect” on clearance). Median weight in the dataset was 65.3 kg. […]
During the model building process, a number of residual error models were evaluated. […]
Bootstrap re-sampling was undertaken to compare the parameter estimates from the final model with those determined following 1000 bootstrap runs. […]

[3] = 87.5 mg q12 h and 125 mg q24 h cohorts compared to 37.5 mg q12 h or q24 h cohorts

CCCOc1ccc(S(=O)(=O)NCCC2CCCN2C)cc1-c1nc2c(CCC)nn(C)c2c(=O)[nH]1 (centres unmarked) [udenafil]
Peak VO2 at Anaerobic Threshold, Difference, FU − BL ([1]; 37.5 mg daily): -0.5 ± 4.1 mL/min/kg | Peak VO2 at Maximum Effort, Difference, FU − BL ([1]; 37.5 mg daily): -0.8 ± 1.7 mL/min/kg | Peak VO2 at Anaerobic Threshold, Baseline measurement ([1]; 37.5 mg daily): 17.2 ± 5.0 mL/min/kg | Peak VO2 at Maximum Effort, Baseline measurement ([1]; 37.5 mg daily): 24.6 ± 6.9 mL/min/kg | Peak VO2 at Anaerobic Threshold, Follow-up measurement ([1]; 37.5 mg daily): 16.3 ± 2.0 mL/min/kg | Peak VO2 at Maximum Effort, Follow-up measurement ([1]; 37.5 mg daily): 24.7 ± 6.7 mL/min/kg | Peak VO2 at Anaerobic Threshold, Difference, FU − BL ([1]; 37.5 mg twice daily): 0.1 ± 1.0 mL/min/kg | Peak VO2 at Maximum Effort, Difference, FU − BL ([1]; 37.5 mg twice daily): -1.6 ± 5.1 mL/min/kg | Peak VO2 at Anaerobic Threshold, Baseline measurement ([1]; 37.5 mg twice daily): 18.0 ± 3.0 mL/min/kg | Peak VO2 at Maximum Effort, Baseline measurement ([1]; 37.5 mg twice daily): 30.4 ± 6.2 mL/min/kg | Peak VO2 at Anaerobic Threshold, Follow-up measurement ([1]; 37.5 mg twice daily): 18.1 ± 3.0 mL/min/kg | Peak VO2 at Maximum Effort, Follow-up measurement ([1]; 37.5 mg twice daily): 28.8 ± 8.1 mL/min/kg | Peak VO2 at Anaerobic Threshold, Difference, FU − BL ([1]; 87.5 mg daily): -1.1 ± 1.9 mL/min/kg | Peak VO2 at Maximum Effort, Difference, FU − BL ([1]; 87.5 mg daily): -1.4 ± 2.5 mL/min/kg | Peak VO2 at Anaerobic Threshold, Baseline measurement ([1]; 87.5 mg daily): 17.6 ± 5.3 mL/min/kg | Peak VO2 at Maximum Effort, Baseline measurement ([1]; 87.5 mg daily): 28.4 ± 6.2 mL/min/kg | Peak VO2 at Anaerobic Threshold, Follow-up measurement ([1]; 87.5 mg daily): 16.5 ± 4.8 mL/min/kg | Peak VO2 at Maximum Effort, Follow-up measurement ([1]; 87.5 mg daily): 27.1 ± 5.0 mL/min/kg | Peak VO2 at Anaerobic Threshold, Difference, FU − BL ([1]; 87.5 mg twice daily): -1.7 ± 2.1 mL/min/kg | Peak VO2 at Maximum Effort, Difference, FU − BL ([1]; 87.5 mg twice daily): 0.2 ± 5.0 mL/min/kg | Peak VO2 at Anaerobic Threshold, Baseline measurement ([1]; 87.5 mg twice daily): 18.3 ± 4.6 mL/min/kg | Peak VO2 at Maximum Effort, Baseline measurement ([1]; 87.5 mg twice daily): 28.0 ± 5.2 mL/min/kg | Peak VO2 at Anaerobic Threshold, Follow-up measurement ([1]; 87.5 mg twice daily): 16.5 ± 5.2 mL/min/kg | Peak VO2 at Maximum Effort, Follow-up measurement ([1]; 87.5 mg twice daily): 28.2 ± 6.0 mL/min/kg | Peak VO2 at Anaerobic Threshold, Difference, FU − BL ([1]; 125 mg daily): 1.2 ± 1.9 mL/min/kg | Peak VO2 at Maximum Effort, Difference, FU − BL ([1]; 125 mg daily): 0.9 ± 2.6 mL/min/kg | Peak VO2 at Anaerobic Threshold, Baseline measurement ([1]; 125 mg daily): 18.8 ± 1.8 mL/min/kg | Peak VO2 at Maximum Effort, Baseline measurement ([1]; 125 mg daily): 28.6 ± 3.0 mL/min/kg | Peak VO2 at Anaerobic Threshold, Follow-up measurement ([1]; 125 mg daily): 20.0 ± 3.2 mL/min/kg | Peak VO2 at Maximum Effort, Follow-up measurement ([1]; 125 mg daily): 28.6 ± 3.8 mL/min/kg | AUCτ [2, 3]: significantly increased | Cmax [2, 3]: significantly increased | AUC0-24 ([2]; 87.5 mg q12 h cohort among all regimens tested): highest | Cmax ([2]; 87.5 mg q12 h cohort compared to its q24 h counterpart): increased | AUC0-24 ([2]; 125 mg q24 h cohort compared to 37.5 mg q24 h cohort): significantly increased | ke, T1/2, or Tmax ([2]; among all 5 tested dosing regimens): no statistically significant difference | CL/F or V/F ([2]; among dosing regimens, except between 37.5 mg q24 h and 87.5 mg q12 h): No significant difference | Vd/F (clinical): 74 L | apparent clearance (CL/F/70 kg) (clinical): 36 L/h | inter-compartmental clearance (Q/F) (clinical): 21.1 L/h | peripheral volume of distribution (V3/F) (clinical): 181 L
